The nature of the series: percent drug eluted over time from coated stent. The conditions noted are these: base coat podophyllotoxin, Cyclops-12, in THF; Cyclops-9 cap coat with THF as cap coat solvent (FIG. 6) vs acetone (FIG. 5). The series is classed as physicochemical. The source says: The cap coating examples may be compatible with a variety of base coats of the present invention. In one embodiment, the cap coat provided by example 9 (e.g., Cyclops-9 in acetone) may be used with a base coat provided by example 6 (e.g., Resten-NG, PVPP, in methanol-water mix). The use of a cap coat may influence the release profile of the therapeutic agent, or drug. […] The stent is base coated with a Resten-NG, PVPP in methanol/water mixed solvent and (optionally) cap coated with a Cyclops-9 in acetone mixture.
In another embodiment, the cap coat provided by example 9 (e.g., Cyclops-9 in acetone or THF) may be used with a base coat provided by example 8 (e.g., podophyllotoxin, Cyclops-12, in THF). Depending on the solvent chosen for the cap coat (e.g., acetone or THF), a different drug release profile may be obtained. […] Thus, the drug release profile may be altered by using a different cap coat solvent.

As to `COc1cc([C@@H]2c3cc4c(cc3[C@H](O)[C@H]3COC(=O)[C@H]23)OCO4)cc(OC)c1OC` [podophyllotoxin], the “elution rate (percent drug eluted over time)” value is reported as “marked increase in elution rate”.

Source of the values: patent US20050181117A1, “Stent coating method” (Medtronic Vascular, Inc., priority 2003, published 2005).
